Test results as given in patent publication US20220153732A1, “PROTEIN SECRETION INHIBITORS” (KEZAR LIFE SCIENCES, priority 2019, published 2022).

What was measured:
Assay type in all cases: cell-based
[1] = tested on: IL-2-FL/Gaussia Luciferase; assay: Dox Induced IL2-FL-Gluc Assay; conditions: 24 hr doxycycline induction, 293FRT/TO cells, Gaussia luciferase signal; read-out: 24 hr Dox Inducible IL2FLGIuc 293FRT/TO: Mean IC50
Summary of the method: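 Stable T-REx cell line expressing doxycycline-inducible IL-2-FL/Gaussia luciferase cDNA, plated the day before assay. Compound dilutions in DMSO/media containing doxycycline added and incubated at 37° C., 5% CO2. Unspecified stereochemistry means data refer to a stereoisomer mixture.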

[2] = tested on: human multiple myeloma cell line NCI-H929; assay: H929 Cell Viability Assay; conditions: 48 hr, NCI-H929 cells, Celltiter-Glo, read-out: 48 hr H929 Viability Celltiter-Glo: Mean EC50
Protocol: Plates were incubated at 37° C., 5% CO2 for 48 hours. After 48 hours, Celltiter-Glo® (Promega) was added to each well and luciferase signal was quantified using Tecan Infinite M1000 Pro for cell viability determination.
For chemical structures that include one or more stereoisomers, but are illustrated without indicating stereochemistry, the assay data refers to a mixture of stereoisomers.

[3] = tested on: human multiple myeloma cell line U266B1; assay: U266 Cell Viability Assay; conditions: U-266, 48 hr, U266B1 cells, Celltiter-Glo, read-out: 48 hr U266 Viability Celltiter-Glo: Mean EC50
Summary of the method: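 U266B1 myeloma cells treated with compound dilutions in DMSO/media for 48 h at 37 °C, 5% CO2. Viability read by CellTiter-Glo luminescence. Stereochemically undefined structures were tested as stereoisomer mixtures.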

[4] = tested on: HER3-ss+4aa/Gaussia Luciferase; assay: Dox-Induced Her3-ss-Gluc Assay; conditions: 24 hr doxycycline induction, 293FRT/TO cells, Gaussia luciferase signal; read-out: 24 hr Dox Inducible Her3(ss + 4)Gluc 293FRT/TO: Mean IC50
Summary of the method: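 Stable T-REx cell line carrying a doxycycline-regulated HER3-ss+4aa/Gaussia luciferase insert, plated the day before assay. Compound dilutions in DMSO/media with doxycycline added, then incubated at 37° C., 5% CO2. Stereoisomer mixtures tested where stereochemistry is not drawn.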

[5] = tested on: TNFα-FL/Gaussia Luciferase; assay: Dox Induced TNFα-FL-Gluc Assay; conditions: 24 hr doxycycline induction, 293FRT/TO cells, Gaussia luciferase signal; read-out: 24 hr Dox Inducible TNFaFLGluc 293FRT/TO: Mean IC50
Summary of the method: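 A stable T-REx cell line carrying doxycycline-inducible TNFα-FL/Gaussia luciferase was plated the day before assay. Compound dilutions in DMSO/media containing doxycycline were then added and incubated at 37° C, 5% CO2.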

[6] = tested on: PD1-ss+10aa/Gaussia Luciferase; assay: Dox-Induced PD1-ss-Gluc Assay; conditions: 24 hr doxycycline induction, 293FRT/TO cells, Gaussia luciferase signal; read-out: 24 hr Dox Inducible PD1ssGluc 293FRT/TO: Mean IC50
Summary of the method: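 Stable cell line carrying PD1-ss+10aa/Gaussia luciferase cDNA under T-REx (doxycycline-inducible) control, plated the day before assay. Compound dilutions in DMSO/media containing doxycycline added and incubated at 37° C, 5% CO2. Undefined stereocentres: data refer to stereoisomer mixtures.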

CC(C)OC(C)(C)c1csc(NC(=O)c2cccn2Cc2ccc(S(C)(=O)=O)cc2)n1 [Compound A84, N-(4-(2-isopropoxypropan-2-yl)thiazol-2-yl)-1-(4-(methylsulfonyl)benzyl)-1H-pyrrole-2-carboxamide]
IC50 [1]: 5.82 µM
EC50 [2]: > 25 µM
EC50 [3]: > 25 µM
IC50 [4]: > 25 µM
IC50 [5]: > 25 µM
IC50 [6]: 6.34 µM

CC(C)OC(C)(C)c1csc(NC(=O)c2cccn2Cc2cc[n+]([O-])cc2)n1 [Compound A85]
IC50 [1]: > 25 µM
EC50 [2]: > 25 µM
EC50 [3]: > 25 µM
IC50 [4]: > 25 µM
IC50 [5]: > 25 µM
IC50 [6]: 7.54 µM

CC(C)OC(C)(C)c1csc(NC(=O)c2c(Cl)ccn2Cc2ccncc2)n1 [Compound A86, 3-chloro-N-(4-(2-isopropoxypropan-2-yl)thiazol-2-yl)-1-(pyridin-4-ylmethyl)-1H-pyrrole-2-carboxamide]
IC50 [1]: > 25 µM
EC50 [2]: > 25 µM
EC50 [3]: > 25 µM
IC50 [4]: > 25 µM
IC50 [5]: > 25 µM
IC50 [6]: 8 µM

CC(C)OC(C)(C)c1csc(NC(=O)c2cccn2Cc2cccnc2)n1 [Compound A87, N-(4-(2-isopropoxypropan-2-yl)thiazol-2-yl)-1-(pyridin-3-ylmethyl)-1H-pyrrole-2-carboxamide]
IC50 [1]: 8.59 µM
EC50 [2]: > 25 µM
EC50 [3]: > 25 µM
IC50 [4]: > 25 µM
IC50 [5]: > 25 µM
IC50 [6]: 8.13 µM

Cc1ccn(Cc2ccncc2)c1C(=O)Nc1nc(C(C)(C)OC(C)C)cs1 [Compound A88, N-(4-(2-isopropoxypropan-2-yl)thiazol-2-yl)-3-methyl-1-(pyridin-4-ylmethyl)-1H-pyrrole-2-carboxamide]
IC50 [1]: > 25 µM
EC50 [2]: > 25 µM
EC50 [3]: > 25 µM
IC50 [4]: > 25 µM
IC50 [5]: > 25 µM
IC50 [6]: 9.65 µM

CC(C)(O)c1cnc(NC(=O)c2cccn2Cc2ccncc2)s1 [Compound A89]
IC50 [1]: > 25 µM
EC50 [2]: > 25 µM
EC50 [3]: > 25 µM
IC50 [4]: > 25 µM
IC50 [5]: > 25 µM
IC50 [6]: 9.85 µM

CC(C)OC(C)(C)c1csc(NC(=O)c2cccn2Cc2ccnc3ccccc23)n1 [Compound A90, N-(4-(2-isopropoxypropan-2-yl)thiazol-2-yl)-1-(quinolin-4-ylmethyl)-1H-pyrrole-2-carboxamide]
IC50 [1]: > 25 µM
EC50 [2]: 16.9 µM
EC50 [3]: > 25 µM
IC50 [4]: > 25 µM
IC50 [5]: > 25 µM
IC50 [6]: 10 µM

CC(C)OC(C)(C)c1csc(NC(=O)c2cccn2CCc2ccncc2)n1 [Compound A91, N-(4-(2-isopropoxypropan-2-yl)thiazol-2-yl)-1-(2-(pyridin-4-yl)ethyl)-1H-pyrrole-2-carboxamide]
IC50 [1]: > 21.6 µM
EC50 [2]: > 25 µM
EC50 [3]: > 25 µM
IC50 [4]: > 25 µM
IC50 [5]: > 25 µM
IC50 [6]: 11.9 µM

CCc1sc(NC(=O)c2cccn2Cc2ccncc2)nc1CN1CCN(S(=O)(=O)CC)CC1 [Compound A92, N-(5-ethyl-4-((4-(ethylsulfonyl)piperazin-1-yl)methyl)thiazol-2-yl)-1-(pyridin-4-ylmethyl)-1H-pyrrole-2-carboxamide]
IC50 [1]: > 25 µM
EC50 [2]: > 25 µM
EC50 [3]: > 25 µM
IC50 [4]: > 25 µM
IC50 [5]: > 25 µM
IC50 [6]: 13.1 µM

CC(C)OC(C)(C)c1csc(NC(=O)c2cccn2CC2CNC(=O)C2)n1 (stereo not drawn) [Compound A93, N-(4-(2-isopropoxypropan-2-yl)thiazol-2-yl)-1-((5-oxopyrrolidin-3-yl)methyl)-1H-pyrrole-2-carboxamide]
IC50 [1]: > 25 µM
EC50 [2]: > 25 µM
EC50 [3]: > 25 µM
IC50 [4]: > 25 µM
IC50 [5]: > 25 µM
IC50 [6]: 13.2 µM

COCc1cnc(NC(=O)c2cccn2Cc2ccncc2)s1 [Compound A94]
IC50 [1]: > 25 µM
EC50 [2]: > 25 µM
EC50 [3]: > 25 µM
IC50 [4]: > 25 µM
IC50 [5]: > 25 µM
IC50 [6]: 14.6 µM

O=C(Nc1nc2c(s1)COCC2)c1cccn1Cc1ccncc1 [Compound A95]
IC50 [1]: > 25 µM
EC50 [2]: > 25 µM
EC50 [3]: > 25 µM
IC50 [4]: > 25 µM
IC50 [5]: > 25 µM
IC50 [6]: 14.7 µM
